Source: US20230041563A1, “N-(1,3,4-OXADIAZOL-2-YL)ARYLCARBOXAMIDES OR SALTS THEREOF, PREPARATION METHODS, HERBICIDAL COMPOSITIONS AND USES THEREOF” (priority 2018, published 2023)
Where two headings read alike, the source gives them in different places.

Legend:
Assay type in all cases: in vivo
[1] = tested on: Echinochloa crusgalli; test: Weeding effect in post-emergence stage (greenhouse pot spray); settings: for Echinochloa crusgah (activity level): Table 2, dose 500 g a.i./ha
Text: (§1) The activity level criteria for plant damage (i.e., growth control rate) are as follows:
(§2) The above growth control rates are fresh weight control rates.
(§3) Experiment on weeding effect in post-emergence stage: monocotyledonous and dicotyledonous weed seeds (Descurainia sophia, Capsella bursa-pastoris, Abutilon theophrasti, Galium aparine, Stellaria media, Lithospermum arvense, rorippa indica, Alopecurus aequalis, Beckmannia syzigachne, Sclerochloa dura, Phleum paniculatum, Bromus japonicus, Aegilops tauschii, Phalaris arundinacea, Amaranthus retroflexus, Chenopodiaceae, Commelina communis, Sonchus arvensis, convolvulus arvensis, Cirsium setosum, Solanum nigrum, Acalypha australis, Digitaria sanguinalis, Echinochloa crusgalli, Setaria viridis, Setaria glauca, Leptochloa chinensis, Monochoria vaginalis, Sagittaria trifolia, Scirpus juncoides, Cyperus rotundus, Cyperus iria, Cyperus difformis, Fimbristylis, Portulaca oleracea, Xanthium sibiricum, Pharbitis nil) and major crop seeds (wheat, corn, rice, soybean, cotton, oilseed rape, millet, sorghum, potato, sesame, ricinus) were placed in plastic pots filled with soil, then covered with 0.5-2 cm of soil, allowed to grow in a good greenhouse environment. After 2 weeks of sowing, the test plants were treated in the 2 to 3 leaf stage. The tested compounds of the present invention were respectively dissolved in acetone, then added with Tween 80 and 1.5 liter/ha of emulsifiable concentrate of methyl oleate as synergist, diluted with a certain amount of water to obtain a solution with a certain concentration, and sprayed with a spray tower onto the plants. After the application, the plants were cultured for 3 weeks in the greenhouse, and then the experimental results of the weeding were counted. […]

[2] = tested on: Digitaria sanguinalis; test: as above; settings: for Digitaria sanguinalis (activity level): Table 2, dose 500 g a.i./ha
Text: as §1, §2, §3

[3] = tested on: Setaria viridis; test: as above
Text: as §1, §2, §3

[4] = tested on: Abutilon theophrasti; test: as above; settings: Table 2, dose 500 g a.i./ha
Text: as §1, §2, §3

[5] = tested on: weeds; test: Actual control effects and combined effects of mixtures of active ingredients (i) and (ii), stem-leaf treatment, Gowing method; settings: 20 days
Protocol: According to the actual control effect and the property of the herbicides, the balance of the formula and other factors, the optimal ratio was determined. In the calculation formula: X represents the fresh weight inhibition rate when the active ingredient (i) is used in an amount of P; and Y represents the fresh weight inhibition rate when the active ingredient (ii) is used in an amount of Q. The statistical results are shown in Tables 9-11 below.

[6] = Leptochloa chinensis, (ii) 15 g a.i./mu

## Cc1nnc(NC(=O)c2ccc(C(F)(F)F)c([S@@+]([O-])CCC(F)F)c2F)o1 [1-405 (R-configuration)]
[1]; Table 3, dose 125 g a.i./ha
  Echinochloa crusgali (activity level): 5 (Level 5: growth control rate is above 85%)
[2]; Table 3, dose 125 g a.i./ha
  Digitaria sanguinahs (activity level): 5 (Level 5: growth control rate is above 85%)
[3]; Table 3, dose 125 g a.i./ha
  Setaria viridis (activity level): 5 (Level 5: growth control rate is above 85%)

## COC(C)C[S@+]([O-])c1c(C(F)(F)F)ccc(C(=O)Nc2nnc(C)o2)c1F (stereo partly shown) [1-447 (R-configuration)]
[1]; Table 3, dose 500 g a.i./ha
  Echinochloa crusgali (activity level): 5 (Level 5: growth control rate is above 85%)
[2]; Table 3, dose 500 g a.i./ha
  Digitaria sanguinahs (activity level): 5 (Level 5: growth control rate is above 85%)
[3]; Table 3, dose 500 g a.i./ha
  Setaria viridis (activity level): 5 (Level 5: growth control rate is above 85%)

## Cc1nnc(NC(=O)c2ccc(C(F)(F)F)c([S@@+]([O-])CCCC(F)(F)F)c2F)o1 [1-411 (R-configuration)]
[1]; Table 3, dose 250 g a.i./ha
  Echinochloa crusgali (activity level): 5 (Level 5: growth control rate is above 85%)
[2]; Table 3, dose 250 g a.i./ha
  Digitaria sanguinahs (activity level): 5 (Level 5: growth control rate is above 85%)
[3]; Table 3, dose 250 g a.i./ha
  Setaria viridis (activity level): 5 (Level 5: growth control rate is above 85%)

## COCCC[S@@+]([O-])c1c(C(F)(F)F)ccc(C(=O)Nc2nnc(C)o2)c1F [1-448 (R-configuration)]
[1]; Table 3, dose 500 g a.i./ha
  Echinochloa crusgali (activity level): 5 (Level 5: growth control rate is above 85%)
[2]; Table 3, dose 500 g a.i./ha
  Digitaria sanguinahs (activity level): 5 (Level 5: growth control rate is above 85%)
[3]; Table 3, dose 500 g a.i./ha
  Setaria viridis (activity level): 5 (Level 5: growth control rate is above 85%)

## CCOC[S+]([O-])c1c(C(F)(F)F)ccc(C(=O)Nc2nnc(C)o2)c1F (stereo not shown) [Compound 1-444]
[1]
  Echinochloa crusgah (activity level): 5 (Level 5: growth control rate is above 85%)

## Cc1nnc(NC(=O)c2ccc(C(F)(F)F)c([S@@+]([O-])CCO)c2F)o1 [1-429 (R-configuration)]
[1]; Table 3, dose 500 g a.i./ha
  Echinochloa crusgali (activity level): 5 (Level 5: growth control rate is above 85%)
[2]; Table 3, dose 500 g a.i./ha
  Digitaria sanguinahs (activity level): 5 (Level 5: growth control rate is above 85%)
[3]; Table 3, dose 500 g a.i./ha
  Setaria viridis (activity level): 5 (Level 5: growth control rate is above 85%)

## CCC[S@+]([O-])c1c(C(F)(F)F)ccc(C(=O)Nc2nnc(CC)o2)c1F [2-8 (R-configuration)]
[1]; Table 3, dose 250 g a.i./ha
  Echinochloa crusgali (activity level): 5 (Level 5: growth control rate is above 85%)
[2]; Table 3, dose 250 g a.i./ha
  Digitaria sanguinahs (activity level): 5 (Level 5: growth control rate is above 85%)
[3]; Table 3, dose 250 g a.i./ha
  Setaria viridis (activity level): 5 (Level 5: growth control rate is above 85%)

## Cc1nnc(NC(=O)c2ccc(C(F)(F)F)c([S+]([O-])C3CCCCC3)c2F)o1 (stereo not shown) [Compound 1-394]
[1]
  Echinochloa crusgah (activity level): 5 (Level 5: growth control rate is above 85%)

## Cc1nnc(NC(=O)c2ccc(C(F)(F)F)c([S@@+]([O-])CCC#N)c2F)o1 [1-427 (R-configuration)]
[1]; Table 3, dose 500 g a.i./ha
  Echinochloa crusgali (activity level): 5 (Level 5: growth control rate is above 85%)
[2]; Table 3, dose 500 g a.i./ha
  Digitaria sanguinahs (activity level): 5 (Level 5: growth control rate is above 85%)
[3]; Table 3, dose 500 g a.i./ha
  Setaria viridis (activity level): 5 (Level 5: growth control rate is above 85%)

## COCC[S@+]([O-])c1c(C(F)(F)F)ccc(C(=O)Nc2nnc(C)o2)c1F [1-57 (R-configuration)]
[1]; Table 3, dose 125 g a.i./ha
  Echinochloa crusgali (activity level): 5 (Level 5: growth control rate is above 85%)
[2]; Table 3, dose 125 g a.i./ha
  Digitaria sanguinahs (activity level): 5 (Level 5: growth control rate is above 85%)
[3]; Table 3, dose 125 g a.i./ha
  Setaria viridis (activity level): 5 (Level 5: growth control rate is above 85%)

## Cc1nnc(NC(=O)c2ccc(C(F)(F)F)c([S@@+]([O-])CCCN)c2F)o1 [1-432 (R-configuration)]
[1]; Table 3, dose 500 g a.i./ha
  Echinochloa crusgali (activity level): 5 (Level 5: growth control rate is above 85%)
[2]; Table 3, dose 500 g a.i./ha
  Digitaria sanguinahs (activity level): 5 (Level 5: growth control rate is above 85%)
[3]; Table 3, dose 500 g a.i./ha
  Setaria viridis (activity level): 5 (Level 5: growth control rate is above 85%)

## CCOC[S+]([O-])c1c(C(F)(F)F)ccc(C(=O)Nc2nnc(C)o2)c1F (stereo not shown) [1-444 (R-configuration)]
[1]; Table 3, dose 500 g a.i./ha
  Echinochloa crusgali (activity level): 5 (Level 5: growth control rate is above 85%)
[2]; Table 3, dose 500 g a.i./ha
  Digitaria sanguinahs (activity level): 5 (Level 5: growth control rate is above 85%)
[3]; Table 3, dose 500 g a.i./ha
  Setaria viridis (activity level): 5 (Level 5: growth control rate is above 85%)

## Cc1nnc(NC(=O)c2ccc(C(F)(F)F)c([S@@+]([O-])CCC3CC3)c2F)o1 [1-395 (R-configuration)]
[1]; Table 3, dose 500 g a.i./ha
  Echinochloa crusgali (activity level): 5 (Level 5: growth control rate is above 85%)
[2]; Table 3, dose 500 g a.i./ha
  Digitaria sanguinahs (activity level): 5 (Level 5: growth control rate is above 85%)
[3]; Table 3, dose 500 g a.i./ha
  Setaria viridis (activity level): 5 (Level 5: growth control rate is above 85%)

## Cc1nnc(NC(=O)c2ccc(C(F)(F)F)c([S@@+]([O-])CCOC(F)F)c2F)o1 [1-523 (R-configuration)]
[1]; Table 3, dose 500 g a.i./ha
  Echinochloa crusgali (activity level): 5 (Level 5: growth control rate is above 85%)
[2]; Table 3, dose 500 g a.i./ha
  Digitaria sanguinahs (activity level): 5 (Level 5: growth control rate is above 85%)
[3]; Table 3, dose 500 g a.i./ha
  Setaria viridis (activity level): 5 (Level 5: growth control rate is above 85%)

## Cc1nnc(NC(=O)c2ccc(C(F)(F)F)c(S(=O)(=O)C(C)(C)C)c2F)o1 [Compound 1-138]
[1]
  Echinochloa crusgah (activity level): 5 (Level 5: growth control rate is above 85%)
[2]
  Digitaria sanguinalis (activity level): 5 (Level 5: growth control rate is above 85%)

## C#CCSc1c(C(F)(F)F)ccc(C(=O)Nc2nnc(C)o2)c1F [Compound 1-43]
[1]
  Echinochloa crusgah (activity level): 5 (Level 5: growth control rate is above 85%)

## CC(=O)Sc1c(C(F)(F)F)ccc(C(=O)Nc2nnc(C)o2)c1F [Compound 1-70]
[1]
  Echinochloa crusgah (activity level): 5 (Level 5: growth control rate is above 85%)

## Cc1nnc(NC(=O)c2ccc(C(F)(F)F)c(SCCF)c2F)o1 [Compound 1-48]
[1]
  Echinochloa crusgah (activity level): 5 (Level 5: growth control rate is above 85%)
[2]
  Digitaria sanguinalis (activity level): 5 (Level 5: growth control rate is above 85%)

## Cc1nnc(NC(=O)c2ccc(C(F)(F)F)c(SCC#N)c2F)o1 [Compound 1-69]
[1]
  Echinochloa crusgah (activity level): 5 (Level 5: growth control rate is above 85%)

## CC(C)C[S+]([O-])c1c(C(F)(F)F)ccc(C(=O)Nc2nnco2)c1F (stereo not shown) [Compound 3-20]
[1]
  Echinochloa crusgah (activity level): 5 (Level 5: growth control rate is above 85%)

## Cc1nnc(NC(=O)c2ccc(C(F)(F)F)c([S+]([O-])CCO)c2F)o1 (stereo not shown) [Compound 1-429]
[1]
  Echinochloa crusgah (activity level): 5 (Level 5: growth control rate is above 85%)
[2]
  Digitaria sanguinalis (activity level): 5 (Level 5: growth control rate is above 85%)
[4]
  Abutilion theophrasti (activity level): 5 (Level 5: growth control rate is above 85%)

## Cc1nnc(NC(=O)c2ccc(C(F)(F)F)c(SC#N)c2F)o1 [Compound 1-68]
[1]
  Echinochloa crusgah (activity level): 5 (Level 5: growth control rate is above 85%)

## Cc1nnc(NC(=O)c2ccc(C(F)(F)F)c([S+]([O-])CCCO)c2F)o1 (stereo not shown) [Compound 1-430]
[1]
  Echinochloa crusgah (activity level): 5 (Level 5: growth control rate is above 85%)
[2]
  Digitaria sanguinalis (activity level): 5 (Level 5: growth control rate is above 85%)
[4]
  Abutilion theophrasti (activity level): 5 (Level 5: growth control rate is above 85%)

## CC1(C)CON(Cc2ccccc2Cl)C1=O [Clomazone]
[5]; Dinebra chinensis, 480 h, Leptochloa chinensis, (ii) 3 g a.i./mu, read-out: Control effect of (ii) alone at corresponding dose
  pest or weed control at 45 g/ha: 16.8%
[5]; Dinebra chinensis, 480 h, Leptochloa chinensis, (ii) 15 g a.i./mu, stem-leaf treatment, read-out: Control effect of (ii) alone at corresponding dose
  pest or weed control at […]: 53.6%
[5]; [6]
  Control effect of (ii) alone at corresponding dose: 53.6%

## CCOC(=O)C(Cl)Cc1cc(-n2nc(C)n(C(F)F)c2=O)c(F)cc1Cl (stereo not shown) [Carfentrazone-ethyl]
[5]; 480 h, Echinochloa phyllopogon, (ii) 0.2 g a.i./mu, stem-leaf treatment, read-out: Control effect of (ii) alone at corresponding dose
  pest or weed control at 3 g/ha: 5.3%
[5]; 480 h, Echinochloa phyllopogon, (ii) 8 g a.i./mu, stem-leaf treatment, read-out: Control effect of (ii) alone at corresponding dose
  pest or weed control at 120 g/ha: 73.6%
[5]; Echinochloa phyllopogon, (ii) 0.2 g a.i./mu
  Control effect of (ii) alone at corresponding dose: 5.3%
[5]; Echinochloa phyllopogon, (ii) 8 g a.i./mu
  Control effect of (ii) alone at corresponding dose: 73.6%

## Cn1[nH]c(C2CC2)c(C(=O)c2ccc(C(F)(F)F)c(N3CCCCC3=O)c2Cl)c1=O [Huanbifucaotong]
[5]; Digitaria sanguinalis, (ii) 3 g a.i./mu, stem-leaf treatment
  Control effect of (ii) alone at corresponding dose: 6.2%
[5]; Leptochloa chinensis, (ii) 0.5 g a.i./mu
  Control effect of (ii) alone at corresponding dose: 9.2%
[5]; Leptochloa chinensis, (ii) 0.5 g a.i./mu, stem-leaf treatment
  Control effect of (ii) alone at corresponding dose: 9.2%
[5]; [6]
  Control effect of (ii) alone at corresponding dose: 76.2%

## CCCCCCCC(=O)Oc1c(Br)cc(C#N)cc1Br [Bromoxynil octanoate]
[5]; 480 h, Sagittaria trifolia L., (ii) 0.6 g a.i./mu, read-out: Control effect of (ii) alone at corresponding dose
  pest or weed control at 9 g/ha: 6.4%
[5]; 480 h, Sagittaria trifolia, (ii) 3 g a.i./mu, stem-leaf treatment, read-out: Control effect of (ii) alone at corresponding dose
  pest or weed control at 45 g/ha: 12.5%
[5]; Sagittaria trifolia L., (ii) 3 g a.i./mu
  Control effect of (ii) alone at corresponding dose: 12.5%
